The term IC50 denotes the point on the concentration scale where inhibition reaches its midpoint.

The target of experiment [1] is EGFR (human) (UniProt P00533). Conditions: mcf7.
The target of experiment [2] is EGFR (human) (UniProt P00533). The settings on record: a431.
The target in experiment [3] is EGFR (human) (UniProt P00533). Conditions: a549.

Chain of EGFR (human) (P00533 whole entry, looked up): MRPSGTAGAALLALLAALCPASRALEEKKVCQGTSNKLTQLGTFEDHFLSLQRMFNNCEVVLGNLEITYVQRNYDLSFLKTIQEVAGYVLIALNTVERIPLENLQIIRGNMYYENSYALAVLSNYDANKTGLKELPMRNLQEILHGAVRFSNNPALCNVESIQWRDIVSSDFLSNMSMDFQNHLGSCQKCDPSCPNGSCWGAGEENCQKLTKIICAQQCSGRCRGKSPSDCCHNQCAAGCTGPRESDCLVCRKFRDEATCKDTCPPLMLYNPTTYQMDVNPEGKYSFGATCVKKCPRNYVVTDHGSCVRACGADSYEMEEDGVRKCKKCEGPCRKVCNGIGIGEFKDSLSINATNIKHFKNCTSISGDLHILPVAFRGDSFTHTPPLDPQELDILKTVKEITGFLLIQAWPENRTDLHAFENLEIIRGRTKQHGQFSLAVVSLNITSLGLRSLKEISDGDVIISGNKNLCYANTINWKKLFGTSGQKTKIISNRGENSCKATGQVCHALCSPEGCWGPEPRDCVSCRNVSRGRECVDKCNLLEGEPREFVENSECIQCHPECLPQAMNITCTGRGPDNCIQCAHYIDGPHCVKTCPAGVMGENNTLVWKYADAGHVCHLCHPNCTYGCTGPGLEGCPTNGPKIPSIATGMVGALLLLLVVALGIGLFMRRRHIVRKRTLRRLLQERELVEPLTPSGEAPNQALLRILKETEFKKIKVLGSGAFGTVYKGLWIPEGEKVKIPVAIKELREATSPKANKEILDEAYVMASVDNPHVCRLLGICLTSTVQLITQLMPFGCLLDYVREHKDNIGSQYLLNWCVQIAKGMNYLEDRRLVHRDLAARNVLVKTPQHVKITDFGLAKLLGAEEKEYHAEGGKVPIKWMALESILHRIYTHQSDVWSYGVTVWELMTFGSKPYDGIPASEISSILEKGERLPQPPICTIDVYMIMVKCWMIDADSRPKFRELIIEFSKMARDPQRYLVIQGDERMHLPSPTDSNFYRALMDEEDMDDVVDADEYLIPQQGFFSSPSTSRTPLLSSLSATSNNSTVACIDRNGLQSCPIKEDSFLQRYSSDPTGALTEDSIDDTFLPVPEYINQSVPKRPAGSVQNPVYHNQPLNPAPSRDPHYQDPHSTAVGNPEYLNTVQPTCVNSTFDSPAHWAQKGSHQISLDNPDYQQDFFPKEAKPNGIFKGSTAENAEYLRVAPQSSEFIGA

On to `O=C(Nc1ccc2ncnc(Nc3cccc(Br)c3)c2c1)c1cccc2c1OCCO2`, for which the IC50 amounted to 92.8 µM against EGFR (human) [1], 31.7 µM against EGFR (human) [2] and 131 µM at EGFR (human) [3].
Consider `Clc1cccc(Nc2ncnc3ccc(NCc4ccc5c(c4)OCCCO5)cc23)c1`, for which the IC50 against EGFR (human) [1] amounted to 6.22 µM; on EGFR (human) [2], 3.76 µM; against EGFR (human) [3], 45.1 µM.
On to `Brc1cccc(Nc2ncnc3ccc(NCc4ccc5c(c4)OCCCCO5)cc23)c1`, for which the IC50 is 47.8 µM against EGFR (human) [1], 22.4 µM on EGFR (human) [2] and greater than 149 µM on EGFR (human) [3].
The corresponding values for `O=C(Nc1ccc2ncnc(Nc3cccc(Br)c3)c2c1)C1COc2ccccc2O1` (centres undefined) are 152 µM, 65.3 µM and 112 µM.
The corresponding values for `Brc1cccc(Nc2ncnc3ccc(NCc4ccc5c(c4)OCCCO5)cc23)c1` are 7.31 µM, 4.03 µM and 22.6 µM.
In the case of `Brc1cccc(Nc2ncnc3ccc(NCc4ccc5c(c4)OCCO5)cc23)c1`, the IC50 came out at 14.6 µM at EGFR (human) [1], 17.1 µM against EGFR (human) [2] and 79.5 µM against EGFR (human) [3].
The corresponding values for `O=C(Nc1ccc2ncnc(Nc3cccc(Cl)c3)c2c1)c1cccc2c1OCCO2` are 153 µM, 71.1 µM and greater than 153 µM.
In the case of `Cc1cccc(Nc2ncnc3cc4c(cc23)OCCO4)c1`, the IC50 on EGFR (human) [2] was determined as 0.67 µM.
The same measure, in the same setting: in the case of `Fc1cc(Br)ccc1Nc1ncnc2cc3c(cc12)OCCO3` it was 6.28 µM; in that of `FC(F)(F)c1cccc(Nc2ncnc3cc4c(cc23)OCCO4)c1`, 0.77 µM.
As to `Brc1cccc(Nc2ncnc3ccc(NCc4ccc5c(c4)OCO5)cc23)c1`, the IC50 at EGFR (human) [1] came to 21.6 µM; against EGFR (human) [2], 10.2 µM; at EGFR (human) [3], 103 µM.
On EGFR (human) [2], `Brc1cccc(Nc2ncnc3cc4c(cc23)OCCO4)c1` gave an IC50 of 0.75 µM.
Regarding `O=C(Nc1ccc2ncnc(Nc3cccc(Cl)c3)c2c1)C1COc2ccccc2O1` (centres undefined), the results for the 50% inhibitory concentration (IC50) on EGFR (human) [1], against EGFR (human) [2] and at EGFR (human) [3] were 78 µM, 29.7 µM and 91.6 µM, respectively.
The corresponding values for `Clc1cccc(Nc2ncnc3ccc(NCc4ccc5c(c4)OCCCCO5)cc23)c1` are 31.9 µM, 19.9 µM and 67 µM.
